Results: US8716475B2, “2-aminopyrimidine modulators of the histamine H4 receptor” (Janssen Pharmaceutica NV, priority 2007, dated 2014)

Biological target: T1, human H4 receptor (Homo sapiens, UniProt Q9H3N8)
T1 construct: expressed in transfected cells
Assay: Binding Assay on Recombinant Human Histamine H4 Receptor
Settings: Table 1; [3H] histamine competition binding, membranes of SK-N-MC cells transfected with human H4 receptor; average of results
In short: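 Radioligand binding used membranes from SK-N-MC cells stably or transiently expressing human H4, prepared in 50 mM Tris/5 mM EDTA. Nonspecific binding was defined with 100 μM histamine. Bound radioactivity was counted after filtration on PEI-treated GF/C filters, and ">" values are the highest concentration tested.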

T1 sequence (Q9H3N8 whole entry): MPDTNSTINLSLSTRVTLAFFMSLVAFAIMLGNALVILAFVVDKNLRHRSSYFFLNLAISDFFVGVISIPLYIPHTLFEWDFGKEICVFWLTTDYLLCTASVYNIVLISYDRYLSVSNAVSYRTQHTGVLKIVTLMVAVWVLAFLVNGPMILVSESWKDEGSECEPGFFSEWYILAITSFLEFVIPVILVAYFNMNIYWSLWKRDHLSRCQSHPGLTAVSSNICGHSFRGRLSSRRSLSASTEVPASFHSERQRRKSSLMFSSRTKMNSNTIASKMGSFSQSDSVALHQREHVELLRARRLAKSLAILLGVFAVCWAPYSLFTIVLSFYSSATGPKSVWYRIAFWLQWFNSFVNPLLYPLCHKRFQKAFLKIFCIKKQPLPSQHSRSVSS

Going from `CN[C@@H]1CCN(c2cc(C3CCOCC3)nc(N)n2)C1` [Example 60, (R)-4-(3-Methylamino-pyrrolidin-1-yl)-6-(tetrahydro-pyran-4-yl)-pyrimidin-2-ylamine] to `CN[C@@H]1CCN(c2cc(C3CCC3)nc(N)n2)C1` [Example 46, (R)-4-Cyclobutyl-6-(3-methylamino-pyrrolidin-1-yl)-pyrimidin-2-ylamine], the Ki falls from 31 nM to 2 nM (16-fold).

First: CC(C)c1cc(N2C[C@H]3CN(C)C[C@H]3C2)nc(N)n1 [Example 18, 4-Isopropyl-6-(cis-5-methyl-hexahydro-pyrrolo[3,4-c]pyrrol-2-yl)-pyrimidin-2-ylamine]
Second: Cc1nc(N)nc(N2C[C@H]3CN(C)C[C@H]3C2)c1C [Example 30, 4,5-Dimethyl-6-(cis-5-methyl-hexahydro-pyrrolo[3,4-c]pyrrol-2-yl)-pyrimidin-2-ylamine]
The Ki of the first is 31-fold lower: 17 nM for the first, 530 nM for the second.

Compared with `Nc1nc(C2CCCC2)cc(N2CC3CCNC3C2)n1` (stereo not drawn) [Example 6, 4-Cyclopentyl-6-(cis-hexahydro-pyrrolo[3,4-b]pyrrol-5-yl)-pyrimidin-2-ylamine], `Nc1nc(C2CCC2)cc(N2CC3CCNC3C2)n1` (stereo not drawn) [Example 47, 4-Cyclobutyl-6-(cis-hexahydro-pyrrolo[3,4-b]pyrrol-5-yl)-pyrimidin-2-ylamine] is 1.8-fold higher in Ki: 6 nM for the first, 11 nM for the second.

First: CN1CCN(c2cc(C3CCCCC3)nc(N)n2)CC1 [Example 52, 4-Cyclohexyl-6-(4-methyl-piperazin-1-yl)-pyrimidin-2-ylamine]
Second: CN1CCN(c2cc(C3CCOCC3)nc(N)n2)CC1 [Example 59, 4-(4-Methyl-piperazin-1-yl)-6-(tetrahydro-pyran-4-yl)-pyrimidin-2-ylamine]
The Ki of the first is 9.7-fold lower: 3 nM for the first, 29 nM for the second. The first binds more tightly here.

Going from `Nc1nc2c(c(N3CC[C@@H](N)C3)n1)CCCC2` [Example 68, (R)-4-(3-Amino-pyrrolidin-1-yl)-5,6,7,8-tetrahydro-quinazolin-2-ylamine] to `Nc1nc2c(c(N3C[C@H]4CCN[C@H]4C3)n1)CCCC2` [Example 70, (R,R)-4-(Hexahydro-pyrrolo[3,4-b]pyrrol-5-yl)-5,6,7,8-tetrahydro-quinazolin-2-ylamine], the Ki rises from 115 nM to 404 nM (3.5-fold). The first binds more tightly here.

Compared with `CCc1cc(N2CC[C@@H](NC)C2)nc(N)n1` [Example 36, (R)-4-Ethyl-6-(3-methylamino-pyrrolidin-1-yl)-pyrimidin-2-ylamine], `CN[C@@H]1CCN(c2cc(C)nc(N)n2)C1` [Example 23, (R)-4-Methyl-6-(3-methylamino-pyrrolidin-1-yl)-pyrimidin-2-ylamine] is 3.7-fold higher in Ki: 21 nM for the first, 77 nM for the second. The first binds more tightly here.

Going from `Nc1nc(C2CCOC2)cc(N2CCNCC2)n1` (stereo not drawn) [Example 56, 4-piperazin-1-yl-6-(tetrahydro-furan-3-yl)-pyrimidin-2-ylamine] to `CN[C@@H]1CCN(c2cc(C3CCCC3)nc(N)n2)C1` [Example 4, (R)-4-Cyclopentyl-6-(3-methylamino-pyrrolidin-1-yl)-pyrimidin-2-ylamine], the Ki falls from 20 nM to 1 nM (20-fold). The second binds more tightly here.

Going from `CCc1cc(N2CC[C@@H](N)C2)nc(N)n1` [Example 35, (R)-4-(3-Amino-pyrrolidin-1-yl)-6-ethyl-pyrimidin-2-ylamine] to `CNC1CN(c2cc(C(C)C)nc(N)n2)CC1O` (stereo not drawn) [Example 13, trans-1-(2-Amino-6-isopropyl-pyrimidin-4-yl)-4-methylamino-pyrrolidin-3-ol], the Ki rises from 21 nM to 631 nM (30-fold).

Compared with `Cc1nc(N)nc(N2CC3CCCNC3C2)c1C` (stereo not drawn) [Example 31, 4,5-Dimethyl-6-(cis-octahydro-pyrrolo[3,4-b]pyridin-6-yl)-pyrimidin-2-ylamine], `Nc1nc(Cc2ccccc2)cc(N2C[C@H]3CCCN[C@H]3C2)n1` [Example 65, (R,R)-4-Benzyl-6-(octahydro-pyrrolo[3,4-b]pyridin-6-yl)-pyrimidin-2-ylamine] is 5.3-fold lower in Ki: 249 nM for the first, 47 nM for the second.

Same assay, conditions: Table 2; [3H] histamine competition binding, membranes of SK-N-MC cells transfected with human H4 receptor; average of results

First: Nc1nc(C2Cc3ccccc3C2)cc(N2C[C@H]3CNC[C@H]3C2)n1 [Example 173, 4-(cis-Hexahydro-pyrrolo[3,4-c]pyrrol-2-yl)-6-indan-2-yl-pyrimidin-2-ylamine]
Second: Nc1nc(C2Cc3ccccc3C2)cc(N2CCNCC2)n1 [Example 165, 4-Indan-2-yl-6-piperazin-1-yl-pyrimidin-2-ylamine]
The Ki of the first is 1000-fold higher: 2070 nM for the first, 2 nM for the second. The second binds more tightly here.

Going from `COc1c(NCCN)nc(N)nc1C1CCCC1` [Example 116, N^4-(2-Amino-ethyl)-6-cyclopentyl-5-methoxy-pyrimidine-2,4-diamine] to `CC(C)c1cc(NCCN)nc(N)n1` [Example 89, (2-Amino-ethyl)-6-isopropyl-pyrimidine-2,4-diamine], the Ki falls from 64 nM to 19 nM (3.4-fold).

Compared with `CN[C@@H]1CCN(c2cc(C3CCOC3)nc(N)n2)C1` (stereo partly drawn) [Example 191, (R)-4-(3-Methylamino-pyrrolidin-1-yl)-6-(tetrahydro-furan-3-yl)-pyrimidin-2-ylamine], `Nc1nc(C2CCOCC2)cc(N2CC[C@@H](N)C2)n1` [Example 249, (R)-4-(3-Amino-pyrrolidin-1-yl)-6-(tetrahydro-pyran-4-yl)-pyrimidin-2-ylamine] is 7.2-fold higher in Ki: 12 nM for the first, 87 nM for the second. The first binds more tightly here.

Compared with `COCc1cc(N2CCCC(N)C2)nc(N)n1` (stereo in doubt) [Example 225, (R)-4-(3-Amino-piperidin-1-yl)-6-methoxymethyl-pyrimidin-2-ylamine], `CN[C@H]1CCN(c2cc(COC)nc(N)n2)C1` [Example 119, (S)-4-Methoxymethyl-6-(3-methylamino-pyrrolidin-1-yl)-pyrimidin-2-ylamine] is 3-fold lower in Ki: 464 nM for the first, 153 nM for the second.

`CC(C)Cc1cc(N2CC[C@@H](N)C2)nc(N)n1` [Example 149, (R)-4-(3-Amino-pyrrolidin-1-yl)-6-isobutyl-pyrimidin-2-ylamine] and `CCCCc1cc(N2CC[C@@H](N)C2)nc(N)n1` [Example 135, (R)-4-(3-Amino-pyrrolidin-1-yl)-6-butyl-pyrimidin-2-ylamine] are within 1.5-fold of each other in Ki: 3 nM for the first, 4 nM for the second.

First: CC(C)OCc1cc(N2CCN(C)CC2)nc(N)n1 [Example 246, 4-Isopropoxymethyl-6-(4-methyl-piperazin-1-yl)-pyrimidin-2-ylamine]
Second: CN1CCN(c2cc(Cc3ccsc3)nc(N)n2)CC1 [Example 207, 4-(4-Methyl-piperazin-1-yl)-6-thiophen-3-ylmethyl-pyrimidin-2-ylamine]
The Ki of the first is 16-fold higher: 32 nM for the first, 2 nM for the second. The second binds more tightly here.

First: CN1CCN(c2cc(C3(C)CCOCC3)nc(N)n2)CC1 [Example 154, 4-(4-Methyl-piperazin-1-yl)-6-(4-methyl-tetrahydro-pyran-4-yl)-pyrimidin-2-ylamine]
Second: CN1CCN(c2cc(Cc3cccs3)nc(N)n2)CC1 [Example 213, 4-(4-Methyl-piperazin-1-yl)-6-thiophen-2-ylmethyl-pyrimidin-2-ylamine]
The Ki of the first is 12-fold higher: 49 nM for the first, 4 nM for the second. The second binds more tightly here.

`CN1C[C@@H]2CN(c3cc(Cc4ccc(Cl)cc4)nc(N)n3)C[C@@H]2C1` [Example 236, 4-(4-Chloro-benzyl)-6-(cis-5-methyl-hexahydro-pyrrolo[3,4-c]pyrrol-2-yl)-pyrimidin-2-ylamine] and `Nc1nc(Cc2ccc(Cl)cc2)cc(N2C[C@H]3CNC[C@H]3C2)n1` [Example 237, 4-(4-Chloro-benzyl)-6-(cis-hexahydro-pyrrolo[3,4-c]pyrrol-2-yl)-pyrimidin-2-ylamine] are within 1.5-fold of each other in Ki: 249 nM for the first, 257 nM for the second.

Going from `Nc1nc(C2CCCC2)cc(N2CCC3(CCCN3)C2)n1` (racemic) [Example 84, 4-Cyclopentyl-6-(cis-1,7-diaza-spiro[4.4]non-7-yl)-pyrimidin-2-ylamine] to `Nc1nc(C2CCCC2)cc(N2C[C@H]3CCN[C@H]3C2)n1` [Example 83, (R,R)-4-Cyclopentyl-6-(hexahydro-pyrrolo[3,4-b]pyrrol-5-yl)-pyrimidin-2-ylamine], the Ki falls from 11 nM to 3 nM (3.7-fold). The second binds more tightly here.

Compared with `CN1C[C@@H]2CN(c3cc(C(C)(C)C)nc(N)n3)C[C@@H]2C1` [Example 128, 4-tert-Butyl-6-(cis-5-methyl-hexahydro-pyrrolo[3,4-c]pyrrol-2-yl)-pyrimidin-2-ylamine], `CN1C[C@@H]2CN(c3cc(CC4CCCO4)nc(N)n3)C[C@@H]2C1` (stereo partly drawn) [Example 229, 4-(cis-5-Methyl-hexahydro-pyrrolo[3,4-c]pyrrol-2-yl)-6-(tetrahydro-furan-2-ylmethyl)-pyrimidin-2-ylamine] is 19-fold higher in Ki: 19 nM for the first, 360 nM for the second. The first binds more tightly here.

Compared with `Nc1nc(CCC(F)(F)F)cc(N2CCNCC2)n1` [Example 182, 4-piperazin-1-yl-6-(3,3,3-trifluoro-propyl)-pyrimidin-2-ylamine], `CCCCc1cc(N2CCNCC2)nc(N)n1` [Example 142, 4-Butyl-6-piperazin-1-yl-pyrimidin-2-ylamine] is 6.7-fold lower in Ki: 20 nM for the first, 3 nM for the second. The second binds more tightly here.

`NCCNc1cc(C2CC2c2ccccc2)nc(N)n1` (stereo not drawn) [Example 159, N^4-(2-Amino-ethyl)-6-(trans-2-phenyl-cyclopropyl)-pyrimidine-2,4-diamine] and `Nc1nc(C2CC2c2ccccc2)cc(N2CC[C@@H](N)C2)n1` (stereo in doubt) [Example 157, (R)-4-(3-Amino-pyrrolidin-1-yl)-6-(trans-2-phenyl-cyclopropyl)-pyrimidin-2-ylamine] are within 1.5-fold of each other in Ki: 42 nM for the first, 29 nM for the second.

`Nc1nc(Cc2ccsc2)cc(N2CC[C@@H](N)C2)n1` [Example 210, (R)-4-(3-Amino-pyrrolidin-1-yl)-6-thiophen-3-ylmethyl-pyrimidin-2-ylamine] and `CC(C)c1cc(N2CC(N)C2)nc(N)n1` [Example 90, 4-(3-Amino-azetidin-1-yl)-6-isopropyl-pyrimidin-2-ylamine] are within 1.5-fold of each other in Ki: 12 nM for the first, 14 nM for the second.

Compared with `CN[C@@H]1CCN(c2nc(N)nc(C)c2F)C1` [Example 202, (R)-5-Fluoro-4-methyl-6-(3-methylamino-pyrrolidin-1-yl)-pyrimidin-2-ylamine], `CN[C@H]1CCN(c2cc(C(C)C)nc(N)n2)C1` [Example 125, (S)-4-Isopropyl-6-(3-methylamino-pyrrolidin-1-yl)-pyrimidin-2-ylamine] is 74-fold lower in Ki: 515 nM for the first, 7 nM for the second.

First: CCCCc1cc(N2CC3CCC(C2)N3)nc(N)n1 [Example 143, 4-Butyl-6-(3,8-diaza-bicyclo[3.2.1]oct-3-yl)-pyrimidin-2-ylamine]
Second: CC(C)c1cc(N(C)CCN)nc(N)n1 [Example 92, N^4-(2-Amino-ethyl)-6-isopropyl-N^4-methyl-pyrimidine-2,4-diamine]
The Ki of the first is 22-fold lower: 13 nM for the first, 281 nM for the second.
